Tests used:
[1] = Caco-2 cell permeability assay; format: in vitro ADME, human; conditions: human, 37° C.; for Papp A→B at 60 min, 10 μM: Caco-2, apical to basolateral; for Papp B→A at 40 min, 10 μM: Caco-2, basolateral to apical
Method in brief: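 Caco-2 monolayers (days 21-25 post-seeding) received 10 μM compound in HBSS-MES pH 6.5 or HBSS-HEPES pH 7.4 (1% DMSO) at 37 °C, for 60 min A-B or 40 min B-A. Donor and receiver samples were quantified by HPLC-MS/MS (SRM), and Papp and recovery were calculated.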

Factor XIa = Factor XIa (Homo sapiens (Human), UniProt P03951); test: Factor XIa enzyme inhibition assay (dose response, fluorogenic AMC substrate); format: biochemical; conditions: read-out: hFXIa IC50
Method in brief: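 Fluorogenic progress curves (30 min, 1-min reads, 30° C) were recorded for 0.25 nM FXIa cleaving 50 μM Glp-Pro-Arg-AMC in Hepes pH 7.4 buffer with NaCl and Tween 20. Compounds were serially two-fold diluted, and IC50 was fitted with a Hill equation.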

[2] = Plasma protein binding by equilibrium dialysis; format: in vitro ADME; conditions: both sexes, pH 7.4, pooled human plasma, 4 hours at 37° C., read-out: PPB (%)
Method in brief: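 Pooled mixed-gender human plasma spiked with compound at 10 μM was dialysed against PBS pH 7.4 for 4 h at 37°C. Both compartments were quantified by HPLC-MS/MS, and % bound was calculated from plasma vs buffer peak areas.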

Factor XIa, sequence (P03951 388-625): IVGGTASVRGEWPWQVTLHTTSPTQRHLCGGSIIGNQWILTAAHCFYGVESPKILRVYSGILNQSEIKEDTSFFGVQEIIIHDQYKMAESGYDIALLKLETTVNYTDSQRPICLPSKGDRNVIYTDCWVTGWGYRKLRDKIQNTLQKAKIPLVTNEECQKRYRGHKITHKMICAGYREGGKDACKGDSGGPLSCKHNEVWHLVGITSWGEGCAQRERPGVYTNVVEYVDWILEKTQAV
Factor XIa, sequence (P03951 19-387 partner): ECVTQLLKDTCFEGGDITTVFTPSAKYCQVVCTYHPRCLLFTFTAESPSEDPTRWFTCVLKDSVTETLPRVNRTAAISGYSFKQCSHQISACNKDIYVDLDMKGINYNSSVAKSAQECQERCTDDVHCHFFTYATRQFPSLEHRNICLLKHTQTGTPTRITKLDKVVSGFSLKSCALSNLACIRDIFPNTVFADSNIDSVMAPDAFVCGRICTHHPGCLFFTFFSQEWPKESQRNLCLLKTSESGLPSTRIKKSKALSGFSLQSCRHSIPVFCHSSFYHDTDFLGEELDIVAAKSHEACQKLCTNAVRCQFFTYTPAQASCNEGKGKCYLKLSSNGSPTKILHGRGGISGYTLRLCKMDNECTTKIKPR

Row | Papp A→B at 60 min, 10 μM [1] [×10⁻⁶ cm/s] | Papp B→A at 40 min, 10 μM [1] [×10⁻⁶ cm/s] | IC50 (Factor XIa) [nM] | fraction unbound at 4 h, 10 μM [2] | SMILES
1 | < 10 | 11 to 30 | < 10 | 0.05 to 0.09 | CC[C@@H](NC(=O)N1C(=O)[C@H](Cc2cc(C)nc(N)c2)[C@H]1C(=O)N(C)c1nccn1C)c1cc(F)ccc1F [Compound 1-137, (2S,3R)-3-((2-amino-6-methylpyridin-4-yl)methyl)-N2-(1-methyl-1H-imidazol-2-yl)-N1-((R)-1-(2,5-difluorophenyl)propyl)-N2-methyl-4-oxoazetidine-1,2-dicarboxamide]
2 | < 10 | 11 to 30 | < 10 | 0.1 to 0.5 | CC[C@@H](NC(=O)N1C(=O)[C@H](Cc2cc(C)nc(N)c2)[C@H]1C(=O)N(C)c1ccnn1C)c1ccc(C)c(C)c1 [Compound 1-152, (2S,3R)-3-((2-amino-6-methylpyridin-4-yl)methyl)-N2-(1-methyl-1H-pyrazol-5-yl)-N1-((R)-1-(3,4-dimethylphenyl)propyl)-N2-methyl-4-oxoazetidine-1,2-dicarboxamide]
3 | < 10 | 11 to 30 | < 10 | 0.1 to 0.5 | CC[C@@H](NC(=O)N1C(=O)[C@H](Cc2cc(C)nc(N)c2)[C@H]1C(=O)N(C)c1ccnn1C)c1ccc(C)c(F)c1 [Compound 1-155, (2S,3R)-3-((2-amino-6-methylpyridin-4-yl)methyl)-N2-(1-methyl-1H-pyrazol-5-yl)-N1-((R)-1-(3-fluoro-4-methylphenyl)propyl)-N2-methyl-4-oxoazetidine-1,2-dicarboxamide]
4 | < 10 | 11 to 30 | < 10 | 0.05 to 0.09 | CC[C@@H](NC(=O)N1C(=O)[C@H](Cc2cc(C)nc(N)c2)[C@H]1C(=O)N(C)c1ccnn1C)c1ccc(F)c(F)c1 [Compound 1-158, (2S,3R)-3-((2-amino-6-methylpyridin-4-yl)methyl)-N2-(1-methyl-1H-pyrazol-5-yl)-N1-((R)-1-(3,4-difluorophenyl)propyl)-N2-methyl-4-oxoazetidine-1,2-dicarboxamide]

— patent publication US11691962B2 (eXIthera Pharmaceuticals, Inc., priority 2018, dated 2023)
